Experimental data reported in patent publication US8574831B2, “Mutational profiles in HIV-1 reverse transcriptase correlated with phenotypic drug resistance” (Virco N.V., priority 2000, dated 2013).

What was measured:
[1] = test system: HIV with mutations in the reverse transcriptase gene sequence; assay: Phenotypic fold resistance to reverse transcriptase inhibitors, RT mutations at positions 101, 103, 181, 190 (Examples 4-7); format: cell-based, HIV-1
Protocol: As is the case with the genotyping assays, the recombinant virus assay starts with the amplification of viral target sequences by means of PCR. The amplicons are incorporated into a proviral laboratory clone with sequences homologous to those present in the amplicon deleted. This generates a stock of chimeric viruses. The viruses are tested for their ability to grow in the presence of different concentrations of drugs. Results are obtained by calculating IC50 values for each inhibitor and by reporting the results as IC50 values, expressed in μM concentrations, or by computing the ratio of the IC50 values found for the chimeric virus to the IC50 values found for a wild type susceptible laboratory virus tested in parallel. In the latter case, resistance is expressed as “fold-resistance” compared to a wild-type susceptible HIV-1 strain. In order to meet the need for high-volume testing and a short turn-around time for an individual test, the latest generation of phenotyping assays has undergone further modifications. The use of reporter gene systems for susceptibility testing allows the implementation of laboratory automation and standardization. See Pauwels, et al., J. Virol. Methods 20, 309-321 (1998); Paulous, S., et al., International Workshop on HIV Drug Resistance, Treatment Strategies and Eradication, St. Petersburg, Fla., USA. Abstr. 46 (1997); and Deeks, S. G., et al., 2nd International Workshop on HIV Drug Resistance and Treatment Strategies, Lake Maggiore, Italy. Abstr. 53 (1998).
The methods of monitoring HIV-1 drug resistance, may also be used in combination with phenotypic drug resistance testing of viral isolates. For example, in one embodiment, a phenotypic test is utilized that is based upon the construction of chimeric HIV-1 strains composed of the protease (PR) and reverse transcriptase (RT) gene sequences which are isolated and amplified from the patient viral RNA. These strains may subsequently be recombined inside CD4+ T cells with a standard laboratory isogenic (HXB2) HIV-1 DNA construct from which the PR/RT gene sequences were deleted. The recombinant strains may then be grown in the presence of the above-mentioned antiviral drugs and the susceptibility of the viral isolates may be expressed as fold-change value of the IC50 of the drug on the patient isolates over the IC50 of the drug on a wild-type laboratory reference strain.
(§1) Overview of the mean fold increase in resistance and the effect of the 101 mutations in the HIV reverse transcriptase gene sequence. The fold increase in resistance is calculated from the increase in the mean IC50 of the drug relative to the mean IC50 of the same drug for a wild-type reference laboratory HIV-1 strain. The effect of the mutations was investigated on Nevirapine, Delavirdine and Efavirenz.
as §1, with “103” for “101”, “strain.” for “strain. The effect of the mutations was investigated on Nevirapine, Delavirdine and Efavirenz.”
as §1, with “181” for “101”, “strain.” for “strain. The effect of the mutations was investigated on Nevirapine, Delavirdine and Efavirenz.”
as §1, with “190” for “101”, “strain.” for “strain. The effect of the mutations was investigated on Nevirapine, Delavirdine and Efavirenz.”

[2] = test system: HIV-1 HXB2-D variants with site-directed RT mutations; assay: MT-4 cell CPE protection assay, HIV-1 variants constructed by site-directed mutagenesis (Example 2); format: cell-based
Protocol: Mutations in the RT coding region were created by site-directed mutagenesis of a wild-type HXB2-D EcoRl-Pstl restriction enzyme fragment, encompassing the HIV-1 pol gene and cloned into pGEM3 (Promega). Single and multiple nucleotide changes were introduced into RT using the EXSITE™ mutagenesis kit (Strategene). All mutant clones were verified by DNA sequence analysis of the entire RT. PCR fragments were prepared from the mutated clones and the altered RT coding regions were transferred into the HIV-1 HXB2-D genetic background by homologous recombination as described above. The susceptibility of these recombinant viruses to nucleoside analogues was subsequently determined by the MT-4 cell CPE protection assay. Id.

Compound: CC(C)Nc1cccnc1N1CCN(C(=O)c2cc3cc(NS(C)(=O)=O)ccc3[nH]2)CC1 [Delavirdine, delavirdine]
- fold increase in resistance compared to a laboratory reference strain (WT) ([1]; RT genotype 101E): 7.7 fold
- fold increase in resistance compared to a laboratory reference strain (WT) ([1]; RT genotype 101H): 45.5 fold
- fold increase in resistance compared to a laboratory reference strain (WT) ([1]; RT genotype 101P): 162.4 fold
- fold increase in resistance compared to a laboratory reference strain (WT) ([1]; RT genotype 101Q): 1.2 fold
- mean fold increase in resistance compared to a laboratory reference strain (WT) ([1]; RT genotype 103H): 191.6 fold
- mean fold increase in resistance compared to a laboratory reference strain (WT) ([1]; RT genotype 103N): 176.1 fold
- mean fold increase in resistance compared to a laboratory reference strain (WT) ([1]; RT genotype 103R): 1.6 fold
- mean fold increase in resistance compared to a laboratory reference strain (WT) ([1]; RT genotype 103S): 18.3 fold
- mean fold increase in resistance compared to a laboratory reference strain (WT) ([1]; RT genotype 103T): 84.5 fold
- fold increase in resistance compared to a laboratory reference strain (WT) ([1]; RT genotype 181C): 82.5 fold
- fold increase in resistance compared to a laboratory reference strain (WT) ([1]; RT genotype 181I): 81.7 fold
- fold increase in resistance compared to a laboratory reference strain (WT) ([1]; RT genotype 181S): 147.9 fold
- fold increase in resistance compared to a laboratory reference strain (WT) ([1]; RT genotype 190A): 2.3 fold
- fold increase in resistance compared to a laboratory reference strain (WT) ([1]; RT genotype 190E): 131.1 fold
- fold increase in resistance compared to a laboratory reference strain (WT) ([1]; RT genotype 190Q): 34.0 fold
- fold increase in resistance compared to a laboratory reference strain (WT) ([1]; RT genotype 190S): 1.9 fold
- fold increase in resistance compared to a laboratory reference strain (WT) ([1]; RT genotype WT (Table 5)): 1.8 fold
- mean fold increase in resistance compared to a laboratory reference strain (WT) ([1]; RT genotype WT (Table 6)): 1.8 fold
- fold increase in resistance compared to a laboratory reference strain (WT) ([1]; RT genotype WT (Table 7)): 1.8 fold
- fold increase in resistance compared to a laboratory reference strain (WT) ([1]; RT genotype WT (Table 8)): 1.8 fold

Compound: O=C1Nc2ccc(Cl)cc2[C@@](C#CC2CC2)(C(F)(F)F)O1 [Efavirenz, efavirenz]
- fold increase in resistance compared to a laboratory reference strain (WT) ([1]; RT genotype 101E): 2.4 fold
- fold increase in resistance compared to a laboratory reference strain (WT) ([1]; RT genotype 101H): 3.5 fold
- fold increase in resistance compared to a laboratory reference strain (WT) ([1]; RT genotype 101P): 84.2 fold
- fold increase in resistance compared to a laboratory reference strain (WT) ([1]; RT genotype 101Q): 0.9 fold
- mean fold increase in resistance compared to a laboratory reference strain (WT) ([1]; RT genotype 103H): 52.7 fold
- mean fold increase in resistance compared to a laboratory reference strain (WT) ([1]; RT genotype 103N): 486.8 fold
- mean fold increase in resistance compared to a laboratory reference strain (WT) ([1]; RT genotype 103R): 0.6 fold
- mean fold increase in resistance compared to a laboratory reference strain (WT) ([1]; RT genotype 103S): 8.4 fold
- mean fold increase in resistance compared to a laboratory reference strain (WT) ([1]; RT genotype 103T): 2.8 fold
- fold increase in resistance compared to a laboratory reference strain (WT) ([1]; RT genotype 181C): 2.0 fold
- fold increase in resistance compared to a laboratory reference strain (WT) ([1]; RT genotype 181I): 2.0 fold
- fold increase in resistance compared to a laboratory reference strain (WT) ([1]; RT genotype 181S): 8.7 fold
- fold increase in resistance compared to a laboratory reference strain (WT) ([1]; RT genotype 190A): 24.8 fold
- fold increase in resistance compared to a laboratory reference strain (WT) ([1]; RT genotype 190E): 385.3 fold
- fold increase in resistance compared to a laboratory reference strain (WT) ([1]; RT genotype 190Q): 401.1 fold
- fold increase in resistance compared to a laboratory reference strain (WT) ([1]; RT genotype 190S): 483.6 fold
- fold increase in resistance compared to a laboratory reference strain (WT) ([1]; RT genotype WT (Table 5)): 0.9 fold
- mean fold increase in resistance compared to a laboratory reference strain (WT) ([1]; RT genotype WT (Table 6)): 0.9 fold
- fold increase in resistance compared to a laboratory reference strain (WT) ([1]; RT genotype WT (Table 7)): 0.9 fold
- fold increase in resistance compared to a laboratory reference strain (WT) ([1]; RT genotype WT (Table 8)): 0.9 fold

Compound: Cc1ccnc2c1NC(=O)c1cccnc1N2C1CC1 [Nevirapine, nevirapine]
- fold increase in resistance compared to a laboratory reference strain (WT) ([1]; RT genotype 101E): 4.9 fold
- fold increase in resistance compared to a laboratory reference strain (WT) ([1]; RT genotype 101H): 24.0 fold
- fold increase in resistance compared to a laboratory reference strain (WT) ([1]; RT genotype 101P): 53.4 fold
- fold increase in resistance compared to a laboratory reference strain (WT) ([1]; RT genotype 101Q): 1.9 fold
- mean fold increase in resistance compared to a laboratory reference strain (WT) ([1]; RT genotype 103H): 69.4 fold
- mean fold increase in resistance compared to a laboratory reference strain (WT) ([1]; RT genotype 103N): 48.1 fold
- mean fold increase in resistance compared to a laboratory reference strain (WT) ([1]; RT genotype 103R): 1.1 fold
- mean fold increase in resistance compared to a laboratory reference strain (WT) ([1]; RT genotype 103S): 45.4 fold
- mean fold increase in resistance compared to a laboratory reference strain (WT) ([1]; RT genotype 103T): 43.7 fold
- fold increase in resistance compared to a laboratory reference strain (WT) ([1]; RT genotype 181C): 56.0 fold
- fold increase in resistance compared to a laboratory reference strain (WT) ([1]; RT genotype 181I): 63.8 fold
- fold increase in resistance compared to a laboratory reference strain (WT) ([1]; RT genotype 181S): 82.8 fold
- fold increase in resistance compared to a laboratory reference strain (WT) ([1]; RT genotype 190A): 60.7 fold
- fold increase in resistance compared to a laboratory reference strain (WT) ([1]; RT genotype 190E): 40.0 fold
- fold increase in resistance compared to a laboratory reference strain (WT) ([1]; RT genotype 190Q): 52.7 fold
- fold increase in resistance compared to a laboratory reference strain (WT) ([1]; RT genotype 190S): 75.9 fold
- fold increase in resistance compared to a laboratory reference strain (WT) ([1]; RT genotype WT (Table 5)): 1.3 fold
- mean fold increase in resistance compared to a laboratory reference strain (WT) ([1]; RT genotype WT (Table 6)): 1.3 fold
- fold increase in resistance compared to a laboratory reference strain (WT) ([1]; RT genotype WT (Table 7)): 1.3 fold
- fold increase in resistance compared to a laboratory reference strain (WT) ([1]; RT genotype WT (Table 8)): 1.3 fold

Compound: Nc1nc(NC2CC2)c2ncn([C@H]3C=C[C@@H](CO)C3)c2n1 [abacavir, 4-[(2-amino-6-cyclopropyl-amino)-9H-purin-9-yl]-2-cyclopentene-1-methanol]
- susceptibility ([2]; 69S-[S-S] insert plus AZT resistance mutations (210W and 215Y)): decreased susceptibility

Compound: O=c1[nH]cnc2c1ncn2[C@H]1CC[C@@H](CO)O1 [ddl, didanosine]
- resistance ([2]; T69A or V75M in a background of AZT mutations): little or no resistance
